The record followed here is ChEMBL document CHEMBL1201862, “PubChem BioAssay data set” (2004).

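Briefly, cells in 96-well plates were exposed to five compound concentrations for 48 h, and endpoints were estimated by linear interpolation. GI50: concentration for 50% inhibition of growth.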 Activity calls are given as the source filed them. Rule as the data show it: active = GI50 up to about 1.1 µM and inactive = higher. A value given as a limit tells only on which side of the number the result lay.

Common to all, as to test: DTP human tumour cell line panel, 48 h
Assay [1] has as its system ACHN.
Assay [2] has as its system HCC 2998.
The test system of assay [3] is HCT-15.
For assay [4], the system named is HOP-92.
Assay [5] relates to IGROV-1.
Assay [6] relates to KM12.
Assay [7] relates to Malme-3M.
The subject of assay [8] is OVCAR-3.
The subject of assay [9] is OVCAR-4.
In assay [10] the test system is SK-MEL-2.
In assay [11] the test system is SK-OV-3.
Assay [12] relates to TK-10.
Assay [13] deals with U-251.
Assay [14] concerns UACC-62.
The test system of assay [15] is A498.
Assay [16] deals with SR.

The term GI50 denotes the concentration at which growth is held to half of that of the control.

For `C1=Cc2nc1c(-c1ccncc1)c1ccc([n-]1)c(-c1ccncc1)c1nc(c(-c3ccncc3)c3ccc([n-]3)c2-c2ccncc2)C=C1.[Zn+2]`, the GI50 was > 100 µM (inactive) in assay [1]; > 100 µM (inactive) in assay [2]; greater than 100 µM in assay [3]; > 100 µM (inactive) in assay [4]; > 100 µM (inactive) in assay [5]; > 100 µM (inactive) in assay [6]. Besides, the GI50 in [7], in assay [8], in assay [9], in assay [10], in assay [11] and in assay [12] was > 100 µM (inactive) each time. The GI50 in [13] and in assay [14] was > 100 µM (inactive) each time.

In the case of `COc1cc(-c2cc(=O)c3cc(C)c(C)c(C(=O)O)c3o2)cc(OC)c1OC`, the GI50 is > 100 µM (inactive) in assay [15]; > 100 µM (inactive) in [1]; > 100 µM (inactive) in assay [2]; greater than 100 µM in assay [3]; > 100 µM (inactive) in assay [4]; > 100 µM (inactive) in assay [5]. Moreover, the GI50 in [6], in assay [7], in assay [8], in [9], in [10] and in assay [11] was > 100 µM (inactive) in each case. For the same molecule, the GI50 in assay [12], in assay [13] and in assay [14] was > 100 µM (inactive) throughout.

Turning to `O=C(COc1ccccc1Cl)N1N=C(c2ccc(Cl)cc2)CC1(O)c1ccccc1` (stereo not given), the GI50 was > 100 µM (inactive) in [1]; > 100 µM (inactive) in [2]; greater than 100 µM in [3]; > 100 µM (inactive) in assay [4]; > 100 µM (inactive) in assay [5]; > 100 µM (inactive) in assay [6]. The GI50 in [7], in [8], in assay [9], in assay [10], in assay [11] and in assay [16] was > 100 µM (inactive) each time. The GI50 in assay [12], in [13] and in assay [14] was > 100 µM (inactive) each time.

In the case of `Cc1ccc(S(=O)(=O)n2c(-c3ccccc3)c(-c3ccccc3)c3ccccc32)cc1`, the GI50 was > 100 µM (inactive) in assay [1]; > 100 µM (inactive) in assay [2]; greater than 100 µM in [3]; 3.08 µM (inactive) in assay [4]; > 100 µM (inactive) in assay [5]; > 100 µM (inactive) in assay [6]. The GI50 in assay [7] was > 100 µM (inactive); in [8] it was > 100 µM (inactive); in [9], > 100 µM (inactive); in assay [10], > 100 µM (inactive); in assay [11], 5.32 µM (inactive); in [16], 7.31 µM (inactive). Besides, the GI50 in [12], in assay [13] and in assay [14] was > 100 µM (inactive) throughout.

In the case of `CC(=O)OCC12CC(CC1OC(C)=O)c1ccccc12` (stereo not given), the GI50 in assay [15] was > 100 µM (inactive); in assay [1], > 100 µM (inactive); in assay [2] it was > 100 µM (inactive); in assay [3] it was greater than 100 µM; in assay [4], > 100 µM (inactive); in assay [5] it was > 100 µM (inactive). Also, the GI50 in [7], in assay [8], in [9], in assay [11], in assay [16] and in [12] was > 100 µM (inactive) in each case. For the same molecule, the GI50 in assay [13] and in assay [14] was > 100 µM (inactive) each time.

Consider `Cc1ccc(NCC(=O)N2CC(=O)Nc3ccccc32)c(C)c1`, for which the GI50 is > 100 µM (inactive) in assay [1]; > 100 µM (inactive) in [2]; greater than 100 µM in assay [3]; > 100 µM (inactive) in assay [4]; > 100 µM (inactive) in assay [6]; > 100 µM (inactive) in assay [7]. The GI50 in assay [8], in assay [9], in assay [10], in assay [11], in assay [16] and in assay [12] was > 100 µM (inactive) in each case. In addition, the results for the GI50 in assay [13] and in [14] were > 100 µM (inactive) and 95.1 µM (inactive), respectively.

`CCCC(=O)c1c(NOC2OC(COC(C)=O)C(OC(C)=O)C(OC(C)=O)C2OC(C)=O)nc(OC)n(C)c1=O` (stereo not given): the GI50 was > 100 µM (inactive) in assay [1]; > 100 µM (inactive) in assay [2]; greater than 100 µM in assay [3]; > 100 µM (inactive) in assay [5]; > 100 µM (inactive) in assay [6]; > 100 µM (inactive) in assay [9]. The GI50 in [10], in [16], in assay [12], in [13] and in assay [14] was > 100 µM (inactive) in each case.

Turning to `Cc1cc2c(c(C#N)c1C)NC(=O)CCC2=O`, the GI50 is > 100 µM (inactive) in assay [15]; > 100 µM (inactive) in assay [1]; > 100 µM (inactive) in [2]; greater than 100 µM in assay [3]; > 100 µM (inactive) in assay [5]; > 100 µM (inactive) in [6]. For the same molecule, the GI50 in assay [8], in assay [9], in assay [10], in [16], in assay [13] and in assay [14] was > 100 µM (inactive) each time.

On to `COc1cc2c(Cc3cc(OCc4ccccc4)ccc3N)nccc2c(OC)c1OC`, for which the GI50 in assay [1] was > 10 µM (inactive); in [2] it was > 10 µM (inactive); in [3], greater than 10 µM; in assay [4] it was > 10 µM (inactive); in assay [5], > 10 µM (inactive); in assay [6], > 10 µM (inactive). For the same molecule, the GI50 in assay [7], in assay [8], in [10], in assay [11], in assay [16] and in assay [12] was > 10 µM (inactive) each time. The GI50 in assay [13] and in assay [14] was > 10 µM (inactive) in each case.

Regarding `CCCCN(CC)CC(C(C)=O)c1c(O)c2ccccc2oc1=O` (stereo not given), the GI50 in assay [15] was > 100 µM (inactive); in [1], > 100 µM (inactive); in [2], > 100 µM (inactive); in [3], greater than 100 µM; in assay [5] it was > 100 µM (inactive); in assay [6], > 100 µM (inactive). In addition, the GI50 in [7], in assay [8], in [9], in assay [10], in [11] and in assay [16] was > 100 µM (inactive) in each case. Further, the GI50 in [12], in [13] and in [14] was > 100 µM (inactive) each time.

As to `Cc1ccc(S(=O)(=O)OCC23CCC(C4CC42)C2CC23)cc1` (stereo not given), the GI50 is 96.2 µM (inactive) in assay [15]; > 100 µM (inactive) in assay [1]; > 100 µM (inactive) in assay [2]; greater than 100 µM in assay [3]; 29.2 µM (inactive) in [4]; > 100 µM (inactive) in assay [5]. Also, the GI50 is 75.5 µM (inactive) in [7]; 38.5 µM (inactive) in assay [8]; 28.1 µM (inactive) in assay [9]; > 100 µM (inactive) in [11]; 38.5 µM (inactive) in assay [16]; > 100 µM (inactive) in assay [12]. Also, the GI50 in assay [13] is > 100 µM (inactive); in [14] it was 65.6 µM (inactive).

Regarding `CCOC(=O)C(C(=O)c1ccccc1-c1ccccc1C(=O)O)=P(c1ccccc1)(c1ccccc1)c1ccccc1`, the GI50 in [15] was 25.4 µM (inactive); in assay [1], 30 µM (inactive); in assay [2] it was 22.3 µM (inactive); in [3], 25.7 µM; in assay [5], 20.6 µM (inactive); in [7], 22.4 µM (inactive). Further, the GI50 in assay [8] is 25.1 µM (inactive); in [9], 18 µM (inactive); in assay [10], 20.6 µM (inactive); in assay [16], 23.6 µM (inactive); in assay [12] it was 80.4 µM (inactive); in assay [13] it was 18.3 µM (inactive). Also, in [14], the GI50 was 17.4 µM (inactive).

On to `C[C@]12CCC3[C@@H](CC[C@@H]4c5nonc5CC[C@]34C)C1CC[C@@H]2O` (stereo not given in full), for which the GI50 was 25.2 µM (inactive) in assay [15]; 23.6 µM (inactive) in [1]; 31.8 µM (inactive) in assay [2]; 28.4 µM in assay [3]; 23 µM (inactive) in assay [4]; 41.8 µM (inactive) in [5]. Moreover, the GI50 in [6] is 37.8 µM (inactive); in assay [7], 24.5 µM (inactive); in [8], 21.1 µM (inactive); in [9] it was 27.3 µM (inactive); in assay [10] it was 22.6 µM (inactive); in assay [11] it was 30.5 µM (inactive). Besides, the GI50 was 29.5 µM (inactive) in [12], 19.9 µM (inactive) in assay [13] and 30.9 µM (inactive) in assay [14].

Take `C[C@@H]1CC[C@@]2(C)OC(c3ccccc3)[C@H](CO)N2C1=O` (stereo not given in full): the GI50 is > 100 µM (inactive) in assay [15]; > 100 µM (inactive) in assay [1]; greater than 100 µM in [3]; > 100 µM (inactive) in assay [4]; > 100 µM (inactive) in assay [5]; > 100 µM (inactive) in assay [6]. Besides, the GI50 in assay [7], in [8], in assay [9], in assay [10], in [16] and in assay [12] was > 100 µM (inactive) each time. Also, the GI50 in [13] and in [14] was > 100 µM (inactive) each time.
